Results reported in patent US20130309306A1, “INTRAPULMONARY BENZODIAZEPINE FOR THE TREATMENT AND PREVENTION OF SEIZURES” (priority 2010, published 2013).

Test system: PTZ-induced seizures
Test: PTZ seizure threshold test, tonic extension endpoint, Example 2
Assay type: in vivo, mice
Method: NIH Swiss mice (22-30 g) were kept in a vivarium under controlled environmental conditions (temperature, 22-26° C.; humidity, 40-50%) with an artificial 12-h light/dark cycle. Wood chips were used in all cages. Experiments were performed during the light phase of the light/dark cycle after a minimum 30-min period of acclimation to the experimental room. The animal facilities were fully accredited by the Association for Assessment and Accreditation of Laboratory Animal Care. All studies were performed under protocols approved by the Animal Care and Use Committee of the University of California, Davis in strict compliance with the Guide for the Care and Use of Laboratory Animals of the National Research Council (National Academy Press, Washington, D.C.; on the internet at nap.edu/readingroom/books/labrats/).
Midazolam was administered as a commercially available injectable solution (midazolam hydrochloride, 10 mg/10 ml; APP Pharmaceuticals, Schaumburg, Ill., USA) containing sodium chloride (0.8% w/v), disodium edetate (0.01% w/v), benzyl alcohol as preservative (1% v/v) with HCl to adjust the pH 3-3.6. Pentylenetetrazol (PTZ) (Sigma-Aldrich, St. Louis, Mo., USA) was dissolved in 0.9% w/v saline. The remaining test substances were all obtained from Tocris Bioscience (Ellisville, Mo., USA) except for clonazepam, which was from Sigma-Aldrich. Finasteride was dissolved in 25% hydroxypropyl-β-cyclodextrin (Trappsol; Cyclodextrin Technologies Development, High Springs, Fla., U.S.A.). Metyrapone was dissolved in double distilled water and PK 11195 and clonazepam were suspended in 1% Tween 80 and adjusted to volume with saline.
PTZ seizure threshold was determined according to a protocol used previously in our laboratory (Dhir et al., 2011). Intravenous PTZ elicits a sequence of seizure signs beginning with twitch and progressing to clonus and tonic limb extension. In the present study, tonic extension was used as the endpoint. […] It is noteworthy that this is the endpoint originally used in studies characterizing the actions of midazolam against PTZ seizures in mice (Pieri, 1983 Br J Clin Pharmacol 16 Suppl 1: 17S-27S). A 27 gauge-¾ inch “butterfly” needle was inserted into the lateral tail vein and the needle was secured with a narrow piece of adhesive tape. The animal was placed inside a 2 L glass beaker with free aeration from the top and allowed to move freely. The needle was connected by polyethylene tubing to a Beckton, Dickinson 1 ml syringe mounted on an infusion pump (Model ‘11’ plus syringe pump; Harvard Apparatus, Holliston, Mass.). PTZ solution (10 mg/ml) was infused at a constant rate of 0.5 ml/min. The infusion was stopped at 3 min or at the onset of tonic extension, whichever occurred first. The threshold value (mg/kg) for tonic extension was determined according to the formula: (infusion duration [sec]×infusion rate [ml/min]×PTZ concentration [mg/ml]×1000)/(60 [sec]×weight of mouse [g]).
In an initial experiment, the dose-response relationship for midazolam elevation of seizure threshold was assessed at doses of 100 μg/kg to 5 mg/kg (15 min pretreatment time). […] PK 11195 was used at a dose (15 mg/kg) as in the study of Ugale et al. (2004 Brain Res. 2004 Oct. 8; 1023(1):102-11). Clonazepam was administered at a dose of 100 μg/kg (Akula et al., 2009). The volume of all intraperitoneal injections was 10 ml/kg.
Results are expressed as mean±S.E.M.; the significance of the difference in the responses of treatment groups with respect to control is based on one-way analysis of variance (ANOVA) followed by specific post-hoc comparisons using Tukey's test. Differences are considered statistically significant when the probability of type I error was less than 0.05.

Cc1ncc2n1-c1ccc(Cl)cc1C(c1ccccc1F)=NC2 [Midazolam, midazolam]
PTZ threshold for tonic extension vs vehicle (intraperitoneal 500 to 5000 μg/kg (significant), 15 min before PTZ infusion (FIG. 7)): dose-dependent elevation in threshold
increase in threshold for tonic extension (vs vehicle only control) (midazolam 500 μg/kg i.p., 15 min before i.v. PTZ infusion, in the absence of finasteride): 2.3 fold
PTZ seizure threshold vs vehicle (midazolam 100 or 200 μg/kg intratracheal, 10 min before PTZ, in the absence of flumazenil (FIG. 12)): significant increase in the seizure threshold
